The target in this assay is T1, rat B1R (bradykinin receptor 1) (Rattus norvegicus, UniProt P97583).
T1 construct: expressed in transfected cells; host or cells: CHO K1 cells
T1 sequence (P97583 1-337): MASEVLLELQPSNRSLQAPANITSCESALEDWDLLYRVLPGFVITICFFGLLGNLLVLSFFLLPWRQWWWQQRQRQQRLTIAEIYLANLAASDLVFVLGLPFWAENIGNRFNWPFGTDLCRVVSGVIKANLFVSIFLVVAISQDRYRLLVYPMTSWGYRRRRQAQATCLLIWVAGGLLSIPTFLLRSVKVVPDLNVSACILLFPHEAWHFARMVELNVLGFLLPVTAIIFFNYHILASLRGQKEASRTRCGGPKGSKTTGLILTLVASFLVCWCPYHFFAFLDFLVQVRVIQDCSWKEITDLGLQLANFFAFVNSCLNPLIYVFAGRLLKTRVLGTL
Kind of assay: FLIPR Ca2+ assay (Fluo-4) on CHO K1 cells stably transfected with the B1R gene of the rat (rB1R cells): % inhibition at 10 μM / IC50, agonist Des-Arg9-bradykinin. Format: cell-based. To be noted: CHO-K1, rat B1R. The method, boiled down: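 Using a two-addition FLIPR protocol, compound (10 μM for % values; concentration series for IC50) was preincubated 10–20 min with Fluo-4-loaded B1R-expressing CHO K1 cells before EC80 agonist challenge. Suppression of Ca2+ inflow, read as peak fluorescence, is expressed relative to maximum achievable inhibition; duplicate/triplicate, ≥2 independent experiments.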
As for `Cc1cccc(Cl)c1C(=O)NC1CCc2ccc(C(=O)N3CCC4(CCN(Cc5cnn(C)c5C)CC4)C3)cc21` (centres unmarked) [IND_CC-729, 2-Chloro-N-[6-[8-[(1,5-dimethyl-1H-pyrazol-4-yl)-methyl]-2,8-diazaspiro-[4.5]decane-2-carbonyl]-2,3-dihydro-1H-inden-1-yl]-6-methyl-benzamide], the inhibition at 10 µM worked out at 76%.

In the case of `CN(C(=O)c1ccccc1Cl)C1CCc2ccc(C(=O)N3CCC4(CCN(Cc5ccc(F)c(F)c5)CC4)C3)cc21` (centres unmarked) [IND_CC-549, 2-Chloro-N-[6-[8-[(3,4-difluoro-phenyl)-methyl]-2,8-diazaspiro[4.5]decane-2-carbonyl]-2,3-dihydro-1H-inden-1-yl]-N-methyl-benzamide], the inhibition at 10 µM turned out to be 60%. In the case of `N#Cc1ccc(C(=O)N2CCC3(CC2)CCN(C(=O)c2ccc4c(c2)C(NC(=O)c2ccccc2Cl)CC4)CC3)cc1` (centres unmarked) [IND_CC-596, 2-Chloro-N-[6-[9-(4-cyano-benzoyl)-3,9-diazaspiro[5.5]undecane-3-carbonyl]-2,3-dihydro-1H-inden-1-yl]-benzamide] it was 94%; in that of `O=C(NC1CCc2ccc(C(=O)N3CCC4(CCN(Cc5c(F)cccc5F)CC4)C3)cc21)c1cc(C(F)(F)F)ccc1Cl` (centres unmarked) [IND_CC-632, 2-Chloro-N-[6-[8-[(2,6-difluoro-phenyl)-methyl]-2,8-diazaspiro[4.5]decane-2-carbonyl]-2,3-dihydro-1H-inden-1-yl]-5-(trifluoromethyl)-benzamide], 64%. On to `O=C(NC1CCc2ccc(C(=O)N3CCC4(CCN(CCCc5ccc(F)cc5)CC4)CC3)cc21)c1cccc(Cl)c1Cl` (centres unmarked) [IND_CC-760, 2,3-Dichloro-N-[6-[9-[3-(4-fluorophenyl)-propyl]-3,9-diazaspiro[5.5]undecane-3-carbonyl]-2,3-dihydro-1H-inden-1-yl]-benzamide], for which the inhibition at 10 µM amounted to 93%. In the case of `CC(C)CN1CCC2(CC1)CCN(C(=O)c1ccc3c(c1)C(NC(=O)c1c(F)cccc1Cl)CC3)C2` (centres unmarked) [IND_CC-777, 2-Chloro-6-fluoro-N-[6-[8-(2-methyl-propyl)-2,8-diazaspiro[4.5]decane-2-carbonyl]-2,3-dihydro-1H-inden-1-yl]-benzamide] it was 83%. For the compound `O=C(NC1CCc2ccc(C(=O)N3CCC4(CC3)CCN(c3ccncc3)CC4)cc21)c1c(F)cccc1C(F)(F)F` (centres unmarked) [IND_CC-376, 2-Fluoro-N-[6-(9-pyridin-4-yl-3,9-diazaspiro[5.5]undecane-3-carbonyl)-2,3-dihydro-1H-inden-1-yl]-6-(trifluoromethyl)-benzamide], the inhibition at 10 µM came to 102%. The result for `O=C(NC1CCc2ccc(C(=O)N3CCC4(CCN(Cc5cc(F)ccc5F)CC4)CC3)cc21)c1c(F)cccc1Cl` (centres unmarked) [IND_CC-790, 2-Chloro-N-[6-[9-[(2,5-difluoro-phenyl)-methyl]-3,9-diazaspiro[5.5]undecane-3-carbonyl]-2,3-dihydro-1H-inden-1-yl]-6-fluoro-benzamide] reads 96%. The result for `O=C(NC1CCc2ccc(C(=O)N3CCC4(CCN(Cc5c[nH]cn5)CC4)CC3)cc21)c1ccccc1Cl` (centres unmarked) [IND_CC-508, 2-Chloro-N-[6-[9-(1H-imidazol-4-yl-methyl)-3,9-diazaspiro[5.5]undecane-3-carbonyl]-2,3-dihydro-1H-inden-1-yl]-benzamide] reads 100%.

With `O=C(NC1CCc2ccc(C(=O)N3CCC4(CC3)CCN(c3ccncc3)CC4)cc21)c1c(F)cccc1F` (centres unmarked) [IND_CC-383, 2,6-Difluoro-N-[6-(9-pyridin-4-yl-3,9-diazaspiro[5.5]undecane-3-carbonyl)-2,3-dihydro-1H-inden-1-yl]-benzamide], the inhibition at 10 µM is 102%. For the compound `COc1cccc(F)c1CN1CCC2(CC1)CCN(C(=O)c1ccc3c(c1)C(NC(=O)c1ccccc1Cl)CC3)CC2` (centres unmarked) [IND_CC-517, 2-Chloro-N-[6-[9-[(2-fluoro-6-methoxy-phenyl)-methyl]-3,9-diazaspiro[5.5]undecane-3-carbonyl]-2,3-dihydro-1H-inden-1-yl]-benzamide], the inhibition at 10 µM amounted to 90%. Regarding `O=C(NC1CCc2ccc(C(=O)N3CCC4(CCN(Cc5ccc(F)cc5Cl)CC4)CC3)cc21)c1cc(C(F)(F)F)ccc1Cl` (centres unmarked) [IND_CC-669, 2-Chloro-N-[6-[9-[(2-chloro-4-fluoro-phenyl)-methyl]-3,9-diazaspiro[5.5]-undecane-3-carbonyl]-2,3-dihydro-1H-inden-1-yl]-5-(trifluoromethyl)benzamide], the inhibition at 10 µM amounted to 60%. Turning to `O=C(NC1CCc2ccc(C(=O)N3CCC4(CCN(Cc5ccc6ncccc6c5)CC4)C3)cc21)c1cc(C(F)(F)F)ccc1Cl` (centres unmarked) [IND_CC-684, 2-Chloro-N-[6-[8-(quinolin-6-yl-methyl)-2,8-diazaspiro[4.5]decane-2-carbonyl]-2,3-dihydro-1H-inden-1-yl]-5-(trifluoromethyl)-benzamide], the inhibition at 10 µM was determined as 67%. In the case of `Cc1ccc(C(=O)NC2CC(C)(C)c3ccc(C(=O)N4CCC5(CC4)CCN(c4ccncc4)CC5)cc32)c(F)c1` (centres unmarked) [IND_CC-318, N-[3,3-Dimethyl-6-(3-pyridin-4-yl-3,9-diazaspiro[5.5]undecane-9-carbonyl)-1,2-dihydro-inden-1-yl]-2-fluoro-4-methyl-benzamide] it was 100%; in that of `O=C(NC1CCc2ccc(C(=O)N3CCC4(CC3)CCN(c3ccncc3)C4)cc21)c1ccc(F)cc1C(F)(F)F` (centres unmarked) [IND_CC-381, 4-Fluoro-N-[6-(2-pyridin-4-yl-2,8-diazaspiro[4.5]decane-8-carbonyl)-2,3-dihydro-1H-inden-1-yl]-2-(trifluoromethyl)-benzamide], 104%. `CN(C)c1ncc(CN2CCC3(CC2)CCN(C(=O)c2ccc4c(c2)C(NC(=O)c2c(F)cccc2Cl)CC4)C3)cn1` (centres unmarked) [IND_CC-773, 2-Chloro-N-[6-[8-[(2-dimethylamino-pyrimidin-5-yl)-methyl]-2,8-diazaspiro-[4.5]decane-2-carbonyl]-2,3-dihydro-1H-inden-1-yl]-6-fluoro-benzamide]: the inhibition at 10 µM is 80%. In the case of `O=C(c1ccc2c(c1)C(N(C(=O)c1ccccc1Cl)C1CC1)CC2)N1CCC2(CCN(C(=O)c3ccc(F)cc3Cl)CC2)C1` (centres unmarked) [IND_CC-605, 2-Chloro-N-[6-[8-(2-chloro-4-fluoro-benzoyl)-2,8-diazaspiro[4.5]decane-2-carbonyl]-2,3-dihydro-1H-inden-1-yl]-N-cyclopropyl-benzamide] it was 66%; in that of `O=C(c1ccc2c(c1)C(N(C(=O)c1ccccc1Cl)C1CC1)CC2)N1CCC2(CCN(Cc3cccnc3)CC2)C1` (centres unmarked) [IND_CC-518, 2-Chloro-N-cyclopropyl-N-[6-[8-(pyridin-3-yl-methyl)-2,8-diazaspiro[4.5]decane-2-carbonyl]-2,3-dihydro-1H-inden-1-yl]-benzamide], 86%. For `O=C(NC1CCc2ccc(C(=O)N3CCC4(CC3)CCN(C(=O)C3CC3)CC4)cc21)c1ccccc1Cl` (centres unmarked) [IND_CC-597, 2-Chloro-N-[6-[9-(cyclopropanecarbonyl)-3,9-diazaspiro[5.5]undecane-3-carbonyl]-2,3-dihydro-1H-inden-1-yl]-benzamide], the inhibition at 10 µM is 101%. Consider `O=C(NC1CCc2ccc(C(=O)N3CCC4(CCN(Cc5ccc6nccnc6c5)CC4)C3)cc21)c1cc(Cl)ccc1F` (centres unmarked) [IND_CC-672, 5-Chloro-2-fluoro-N-[6-[8-(quinoxalin-6-yl-methyl)-2,8-diazaspiro[4.5]decane-2-carbonyl]-2,3-dihydro-1H-inden-1-yl]-benzamide], for which the inhibition at 10 µM was 88%.
